Several values for one entry are separate records, joined by “and”; a condition that tells them apart may be missing. Equal entries are not always repeated. Where two headings read alike, the source gives them in different places.
Key:
[1] = Steady-state plasma pharmacokinetics; type: in vivo, human
[2] = single-agent enzastaurin 525 mg orally daily; cited from earlier work
[3] = tested on: metastatic NSCLC; settings: single agent, second- or third-line; cited from earlier work
[4] = tested on: NSCLC; settings: cited from earlier work
[5] = tested on: advanced NSCLC; settings: advanced NSCLC progressed after first-line chemotherapy; cited from earlier work
[6] = 150 mg erlotinib daily with 250 mg enzastaurin, geometric mean (CV%), n 3
[7] = 150 mg erlotinib daily with 500 mg enzastaurin, geometric mean (CV%), n 11

SMILES | C av,ss ([1]; enzastaurin 500 mg once daily with erlotinib 150 mg daily, geometric mean (CV%), N 12) | Tmax ([1]; human, plasma, oral) | AUC ([1]; human, plasma, oral, AUCτ,ss, enzastaurin 500 mg once daily with erlotinib 150 mg daily, geometric mean (CV%), N 12) | Cmax ([1]; human, plasma, oral, C max,ss, enzastaurin 500 mg once daily with erlotinib 150 mg daily, geometric mean (CV%), N 12) | AUCτ,ss [2] | CLss/F [2] | patients with prolonged stabilization >6 months [3] | C av,ss [1, 6] | CLss/F [1, 6] | C av,ss [1, 7] | CLss/F [1, 7] | hazard ratio (overall survival vs placebo) ([4]; P < 0.001) | response rate ([4]; unselected population, vs placebo <1%, P < 0.001) | overall survival ([4]; vs placebo 4.7 months) | overall response rate [5]
Cn1cc(C2=C(c3cn(C4CCN(Cc5ccccn5)CC4)c4ccccc34)C(=O)NC2=O)c2ccccc21 [Enzastaurin] | 750 (71) nmol/L | 4.04 h | 18 µM·h | 1600 nM | 23,600 nmol × h/L | 40.3 L/h | 11% |  |  |  |  |  |  |  | 
C#Cc1cccc(Nc2ncnc3cc(OCCOC)c(OCCOC)cc23)c1 [erlotinib] |  |  |  |  |  |  |  | 1,030 (19) ng/mL | 6.07 L/h and 6.07 (19) L/h | 1,090 (45) ng/mL | 5.75 L/h and 5.75 (45) L/h | 0.70 | 8.9% | 6.7 months | 6.2%
